From patent US9844578B2, “Accelerated healing of eye injuries by angiotensin peptides” (UNIVERSITY OF SOUTHERN CALIFORNIA, priority 2013, dated 2017)
Residues, ends and D or L forms follow the SMILES beside them.

Tested on: full-thickness corneal incision
Conditions: rabbit, in vivo
Procedure: Animal Preparation and Procedure:
Before each procedure, the rabbits were anesthetized with a subcutaneous injection of a mixture of ketamine hydrochloride (50-80 mg/kg) and xylazine hydrochloride (5-9 mg/kg). The animal was prepared for sterile surgery conducted under aseptic conditions. Periorbital area was cleaned using 5% povidone iodine solution and a drop of this solution was instilled into the fornix and a speculum was used to hold the eyelids open. Using corneal blade (Keratome 3.2 mm), a clear corneal full-thickness tunnel was created in the same manner as in human phacoemulsification surgery. To prevent the globe collapse after corneal tunnel creation, a small amount of viscoelastic was injected in the anterior chamber through a paracentesis. Gentamicin 25 mg, and dexamethasone 2 mg were injected subconjunctivally. Post-operatively, analgesia was administered. Animals allocated to the treatment group were treated with 1 drop (approximately 50 μl) of the active drug (0.03% or 0.3% Nle3 A(1-7) in 2% hydroxyethyl cellulose in 0.05 M phosphate buffer, pH 6.5) under investigation instilled into the conjunctival sac daily (using a dropper throughout the follow-up period. On the other hand, animals allocated to the control group will be treated with vehicle (2% hydroxyethyl cellulose in 0.05 M phosphate buffer, pH 6.5) eyedrops daily throughout the follow-up period.
These ocular follow-up examinations were done while the animal was under anesthesia as described above. Anterior segment imaging includes red free picture and anterior segment fluorescein imaging using Spectralis (Heildelberg Engineering, Germany) where sequential photos are taken after one drop of 10% fluorescein (Akorn Abit Springs, La.) was instilled in the conjunctival sac and a slight pressure was applied to the globe. This is more commonly known as Seidel's test in which fluorescein strip containing 10% fluorescein was applied topically to the affected area and was examined with a cobalt blue filter. At this point, the fluorescein appears green in color. Any changes in color or surface of the fluorescence area indicate the presence of conical leakage. This imaging data were used to assess the degree of corneal wound healing as well as extent of wound leak. Measurement of the intraocular pressure was performed using Tonopen-AVIVA (TPA, Reichert Inc.).
The injury was also imaged using involved using a Heidelberg Retina Tomograph (HRT) instrument. This is a confocal scanning laser ophthalmoscope which was converted into a confocal corneal microscope using an additional microscope lens which attached to the standard lens. This additional lens enabled the HRT to image cells and cell layers within the cornea to allow an in-life phase assessment of the healing and structure of the cornea to allow detailed views of the conical structure and pathology.

SMILES: CCCC[C@H](NC(=O)[C@H](CCCNC(=N)N)NC(=O)[C@@H](N)CC(=O)O)C(=O)N[C@@H](Cc1ccc(O)cc1)C(=O)N[C@H](C(=O)N[C@@H](Cc1c[nH]cn1)C(=O)N1CCC[C@H]1C(=O)O)[C@@H](C)CC [Nle3-A(1-7), Asp-Arg-Nle-Tyr-Ile-His-Pro] (HELM PEPTIDE1{D.R.[Nle].Y.I.H.P}$$$$V2.0)
- Complications: None
- Fundus Exam & Fluorescein angiography: Normal
- IOP: Normal
- change in intraocular pressure: no change
- fundus examination and fluorescein angiography: normal
